Measurements taken from US12006350B2, “Triblock peptide amphiphiles, micelles and methods of use” (The Curators of the University of Missouri, priority 2017, dated 2024).
No end group written: not given here. *: point of attachment. Palmitoyl = CCCCCCCCCCCCCCCC(=O)*

Legend:
dendritic cells (DCs) [1] = assay: TNF-α secretion from LPS-activated DCs incubated with VIP materials; assay type: cell-based; details: low (1 μM) or high (20 μM) concentration
Description: (§1) The anti-inflammatory effect of VIPAMs were explored by incubating MOs and DCs with LPS and different VIP materials at low (i.e. 1 μM) or high (20 μM) concentrations (FIG. 41A, FIG. 41B, and FIG. 41C).

macrophages (MØs) = assay: TNF-α secretion from LPS-activated MØs incubated with VIP materials; assay type: cell-based
Description: as §1

dendritic cells (DCs) [2] = assay: CCL22 production from DCs treated with VIP formulations; assay type: cell-based; details: 24 hours; for DC CCL22 production: immature and mature DCs; for CCL22 production from immature DCs: vs no stimulus
Description: Thus, CCL22 production from DCs treated with different VIP formulations was evaluated.

dendritic cells (DCs) [3] = assay: CD86 expression on DCs incubated with VIP materials; assay type: cell-based; details: for CD86 expression on activated DCs: with LPS
Description: as §1

[4] = cited from earlier work
dendritic cells (DCs) [5] = details: after 48 hours of incubation; previous results; cited from earlier work
[6] = Micelle morphology and diameter by negative stain TEM; assay type: physicochemical; details: concentrations above CMC
Description: Micelle morphology was assessed by negative stain transmission electron microscopy (TEM). TEM grids (200 mesh) with standard thickness carbon support films were purchased from Electron Microscopy Sciences and glow discharged for 45 seconds (Pelco Easiglow) to impart a negative charge. Product solutions (5 μL) were added to freshly glow-discharged films and incubated for 5 minutes. Filter paper was used to wick away excess solution and 5 μL of nanotungsten (Nanoprobes, Inc.) was immediately added. After 5 minute of incubation, grids were blotted dried and stored for later use. Samples were imaged with a JEOL JEM-1400 TEM at 120 kV for shape assessment. Tilt series images were collected at 200 kV, spot size 4, gun lens of 5, and extraction voltage of 3950 sA at a nominal 23,000× magnification with an underfocus of 1 sm. Tilt increments were collected every 2 degrees with a tilt range of ±70°, starting at 0°, with the negative half of the tilt series collected using FEI Xplore3D. Frames were aligned using IMOD with the patch-tracking algorithm using the entire imaged area for frame alignment and reconstructed with the weighted back projection algorithm. Micellar diameters were measured using ImageJ software (NIH). Three different spots from each micelle were measured and the results from three separate micelles were averaged for each group.

[7] = Zeta potential measurement of the zwitterion-like peptide region alone; assay type: physicochemical
From the text: The alternating charge groups of (KE)4 at neutral pH can create local dipole moments that allow for intermicellar complexation yielding the observed twining behavior. At low pH and high pH utilized, not all of the glutamic acids or lysines will be protonated or deprotonated, respectively, but the local change in (KE)4 block charge is significant enough to repulse one another yielding individual thread-like micelles.

[8] = Critical micelle concentration (CMC) by DPH fluorescence; assay type: physicochemical; details: VIP amphiphiles
Description: Critical micelle concentration (CMC) was measured indirectly by 1,6-diphenyl-1,3,5-hexatriene (DPH) fluorescence. […] Peptide amphiphile solutions were serially diluted in 1 μM 1,6-diphenyl-1,3,5 hexatriene (DPH) containing 0.01% THF and allowed to equilibrate for 1 hour prior to fluorescence measurement (ex. 350 nm, em. 428 nm) by a BioTek Cytation 5 fluorospectrophotometer. The resulting data was fit with two trend lines and the fluorescence inflection point was interpreted as the CMC (Table 4 and FIG. 23, FIG. 24, FIG. 25, FIG. 26, FIG. 27, FIG. 28, FIG. 29, and FIG. 30).
VIPA design and physical characterization: Based on our recent research, two VIPA chemistries were produced. The first VIPA was synthesized by directly conjugating palmitic acid (Palm) to the N-terminus of VIP to form Palm-VIP, […] (SEQ ID NO: 3), (pVIPA—FIG. 39A). The second VIPA included a zwitterion-like peptide region between Palm and VIP yielding PalmK-(EK)4-VIP, […] (SEQ ID NO: 4) (pzVIPA—FIG. 39B). […] While the addition of the hydrophilic block may have been expected to maintain or decrease the CMC, peptide folding to orient the most hydrophilic section externally can induce bending in the PA that may prevent straightforward micellar packing. […] This increased length is likely due to the intermicellar electrostatic complexation we have previously described for similar triblock PAs. […]

[9] = Micelle/peptide secondary structure by circular dichroism; assay type: physicochemical; details: CD analysis; compared with VIP and pVIPA
Description: Micelle secondary structure was investigated by circular dichroism using a circular dichroism spectrometer model 62DS (Aviv Biomedical, Inc., Lakewood, NJ). Micelle solutions (40 μM) were loaded into a 1 mm cuvette and measured a total of 10 times from 190 to 250 nm with an interval of 1 nm. The averaged data was curve fit using a linear combination of polylysine basis structures to calculate approximate α-helix, β-sheet, and random coil content.

[10] = low (1 μM) or high (20 μM) concentration

Compound | TNF-α secretion from activated DCs (dendritic cells (DCs) [1]) | TNF-α secretion from activated MØs (macrophages (MØs); [10]) | DC CCL22 production (dendritic cells (DCs) [2]) | CD86 expression on activated DCs (dendritic cells (DCs) [3]; [10]) | micelle shape [6] | CCL22 production from immature DCs (dendritic cells (DCs) [2]; high concentration) | CD86 expression on activated DCs (dendritic cells (DCs) [3]; high concentration (20 μM)) | also measured
CCCCCCCCCCCCCCCC(=O)O [Palm, palmitic acid, reference compound] | no TNF-α nor CD86 regulation | no TNF-α nor CD86 regulation | no impact on CCL22 induction | no TNF-α nor CD86 regulation |  |  |  | 
N[C@@H](CCC(=O)O)C(=O)O [glutamic acid] |  |  |  |  |  |  |  | pKa [4]: 4.07
Vasoactive intestinal peptide (HSDAVFTDNYTRLRKQMAVKKYLNSILN) [VIP, reference compound] | modestly reduce | modestly reduce | unable to induce | modestly reduce |  |  |  | CCL22 production (dendritic cells (DCs) [5]): induces significant CCL22 production
Palm-VIP [pVIPA] | completely nullified VIP effects | unable to enhance the TNF-α suppressive effects of VIP |  |  | cylindrical micelles | induced greater CCL22 production | enhanced | CCL22 production from mature DCs (dendritic cells (DCs) [2]; high concentration, vs LPS-stimulated mature DC control): enhanced CCL22 production; CD86 expression in immature DCs (dendritic cells (DCs) [3]; high concentration, no LPS): significantly increased
-Lys-Glu-Lys-Glu-Lys-Glu-Lys-Glu- (KEKEKEKE) [(KE)4] |  |  |  |  |  |  |  | Zeta Potential ([7]; pH 2): 31.4 ± 2.9 mV; Zeta Potential ([7]; pH 7): −7.8 ± 1.2 mV; Zeta Potential ([7]; pH 11): −18.1 ± 4.7 mV
PalmK-(EK)4-VIP (K(Palmitoyl)EKEKEKEKHSDAVFTDNYTRLRKQMAVKKYLNSILN-NH2; not fully specified) [pzVIPA] | maintained VIP-based TNF-α secretion |  |  |  | braided micelles | induced greater CCL22 production | significantly limited | TNF-α secretion from activated MØs (macrophages (MØs); effect only at high concentration (20 μM)): nearly completely abrogated; CMC [8]: 9.3 µM; α-helical conformation [9]: more abundant; CD86 cell surface expression on immature DCs (dendritic cells (DCs) [3]; no LPS): no increase
